Data published in paper PMC12332667, “Role of Structural Modifications in Peptidomimetic Compounds as Potential Antimicrobial Agents against Staphylococcus aureus and Streptococcus pyogenes: Balancing Bioavailability, Safety, and Antimicrobial Activity” (ACS Omega, 2025).
In brackets after ≈: the same amount, converted by molar mass. Several values for one entry are separate records, joined by “and”; a condition that tells them apart may be missing. Equal entries are not always repeated.

Key:
S. aureus ATCC 43300 = assay: MIC/MBC broth microdilution, S. aureus; type: cell-based, Staphylococcus aureus; conditions: S. aureus
[1] = system: human dermal fibroblast cell line (46BR.1N); assay: XTT cell proliferation assay, fibroblasts; type: cell-based
In short: (§1)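 Proliferation was read as XTT absorbance at 490 nm after 4 h of reagent incubation, following 48 or 72 h of peptide exposure in serum-free HG-DMEM (37 °C, 5% CO2). The 72 h arm included a half-medium change with second peptide dose at 48 h. Significance by Mann–Whitney U, p ≤ 0.05.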

E. coli ATCC 25922 = assay: MIC/MBC broth microdilution, E. coli; type: cell-based, Escherichia coli
In short: (§2)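 Bacteria inoculated at about 10^5 CFU/mL in BHI broth and incubated 18 h at 37 °C with serial dilutions of peptidomimetics, NCCLS microdilution format. MBC taken as lowest concentration leaving no more than 3 colonies (≥99.9% kill); MIC as lowest concentration without obvious growth (≥90% of untreated); solvent controls included.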

S. pyogenes ATCC 19615 = assay: MIC/MBC broth microdilution, S. pyogenes; type: cell-based, Streptococcus pyogenes; conditions: S. pyogenes
In short: as §2

E. faecalis c.i. = assay: MIC/MBC broth microdilution, E. faecalis; type: cell-based, Enterococcus faecalis
In short: as §2

[2] = Hydrophobicity by reverse-phase chromatography; type: physicochemical; conditions: acetonitrile content in the mobile phase at the retention time
In short: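 Hydrophobicity value is the acetonitrile content (%) of the eluent when the compound elutes from a reverse-phase column.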

P. aeruginosa ATCC 10145 = assay: MIC/MBC broth microdilution, P. aeruginosa; type: cell-based
In short: as §2

S. cohnii c.i. = assay: MIC/MBC broth microdilution, S. cohnii; type: cell-based, Staphylococcus cohnii
In short: as §2

[3] = system: immortalized human HaCaT keratinocytes; assay: XTT cell proliferation assay, keratinocytes; type: cell-based
In short: as §1

[4] = system: K. pneumoniae ATCC 700603; assay: MIC/MBC broth microdilution, K. pneumoniae; type: cell-based
In short: as §2

[5] = XTT, 48 and 72 h, 0.01–150 μg/mL
[6] = up to 150 μg/mL, A-193 and A-179 after 48 h

Compound | MBC (S. aureus ATCC 43300; H2O) [µg/mL] | MIC (S. aureus ATCC 43300; H2O) [µg/mL] | MBC (S. aureus ATCC 43300; water additive DMSO) [µg/mL] | MIC (S. aureus ATCC 43300; water additive DMSO) [µg/mL] | MBC (S. aureus ATCC 43300; water additive EtOH) [µg/mL] | MIC (S. aureus ATCC 43300; water additive EtOH) [µg/mL] | MIC (E. coli ATCC 25922; H2O) [µg/mL] | MIC (E. coli ATCC 25922; water additive DMSO) [µg/mL] | MIC (E. coli ATCC 25922; water additive EtOH) [µg/mL] | MBC (S. pyogenes ATCC 19615; H2O) [µg/mL] | MIC (S. pyogenes ATCC 19615; H2O) [µg/mL] | MBC (S. pyogenes ATCC 19615; water additive DMSO) [µg/mL] | MIC (S. pyogenes ATCC 19615; water additive DMSO) [µg/mL] | MBC (S. pyogenes ATCC 19615; water additive EtOH) [µg/mL] | MIC (S. pyogenes ATCC 19615; water additive EtOH) [µg/mL] | MIC (E. faecalis c.i.; H2O) [µg/mL] | MIC (E. faecalis c.i.; water additive DMSO) [µg/mL] | MBC (E. faecalis c.i.; water additive EtOH) [µg/mL] | % AcCN (acetonitrile required for elution from the column) [2] | MIC (P. aeruginosa ATCC 10145; water additive EtOH) [µg/mL] | other results
CC(C)[C@@H](CNC(=O)C(=Cc1ccccc1)c1ccccc1)NC(=O)[C@H](CCCNC(=N)N)NC(=O)[C@H](CCCCNC(=N)N)NC(=O)OCc1ccccc1 [Compound A-192] | 4 (≈ 5.2 µM) | 4 (≈ 5.2 µM) | 16 (≈ 20.8 µM) | 16 (≈ 20.8 µM) | 16 (≈ 20.8 µM) | 16 (≈ 20.8 µM) | > 512 | 256 (≈ 333 µM) | > 512 | 8 (≈ 10.4 µM) | 8 (≈ 10.4 µM) | 8 (≈ 10.4 µM) | 8 (≈ 10.4 µM) | 8 (≈ 10.4 µM) | 4 (≈ 5.2 µM) | > 512 | > 512 | 512 (≈ 666 µM) | 44.8–49.8% and 48.7% | > 512 | proliferation relative to control at 100 and 150 μg/mL ([1]; XTT): 25%; proliferation relative to control at 50 μg/mL ([1]; XTT, 50 μg/mL): 50%; effect on proliferation, in words [1, 5]: negative impact; MBC (E. coli ATCC 25922; water additive DMSO): 512 µg/mL (≈ 666 µM); MIC (E. faecalis c.i.; water additive EtOH): 256 µg/mL (≈ 333 µM); MBC (P. aeruginosa ATCC 10145; H2O): 256 µg/mL (≈ 333 µM); MBC (S. cohnii c.i.; H2O): 32 µg/mL (≈ 41.6 µM); MIC (S. cohnii c.i.; H2O): 16 µg/mL (≈ 20.8 µM); MBC (S. cohnii c.i.; water additive DMSO): 32 µg/mL (≈ 41.6 µM); MIC (S. cohnii c.i.; water additive DMSO): 32 µg/mL (≈ 41.6 µM); MBC (S. cohnii c.i.; water additive EtOH): 32 µg/mL (≈ 41.6 µM); MIC (S. cohnii c.i.; water additive EtOH): 16 µg/mL (≈ 20.8 µM); proliferation relative to control at 100 and 150 μg/mL ([3]; XTT): 25%; proliferation relative to control at 50 μg/mL ([3]; XTT, 50 μg/mL): 50%; effect on proliferation, in words [3, 5]: negative impact; MIC ([4]; H2O): > 512 µg/mL; MIC ([4]; water additive DMSO): > 512 µg/mL; MIC ([4]; water additive EtOH): > 512 µg/mL
CC(C)[C@@H](CNC(=O)C(=Cc1ccccc1)c1ccccc1)NC(=O)[C@H](Cc1c[nH]cn1)NC(=O)[C@H](CCCCNC(=N)N)NC(=O)OCc1ccccc1 [Compound A-193] | 32 (≈ 42.7 µM) | 32 (≈ 42.7 µM) | 32 (≈ 42.7 µM) | 32 (≈ 42.7 µM) | 32 (≈ 42.7 µM) | 32 (≈ 42.7 µM) | 256 (≈ 341 µM) | > 512 | 256 (≈ 341 µM) | 16 (≈ 21.3 µM) | 8 (≈ 10.7 µM) | 16 (≈ 21.3 µM) | 8 (≈ 10.7 µM) | 16 (≈ 21.3 µM) | 8 (≈ 10.7 µM) | 256 (≈ 341 µM) | 512 (≈ 683 µM) | 256 (≈ 341 µM) | 49.0% and 44.8–49.8% | > 512 | antiproliferative effect (decrease vs control) [1, 6]: over 50%; MBC (E. coli ATCC 25922; H2O): 256 µg/mL (≈ 341 µM); MBC (E. coli ATCC 25922; water additive EtOH): 512 µg/mL (≈ 683 µM); MBC (E. faecalis c.i.; H2O): 512 µg/mL (≈ 683 µM); MIC (P. aeruginosa ATCC 10145; H2O): > 512 µg/mL; MIC (P. aeruginosa ATCC 10145; water additive DMSO): 512 µg/mL (≈ 683 µM); MBC (S. cohnii c.i.; water additive DMSO): 256 µg/mL (≈ 341 µM); antiproliferative effect (decrease vs control) [3, 6]: over 50%; MIC ([4]; H2O): > 512 µg/mL; MIC ([4]; water additive DMSO): > 512 µg/mL; MIC ([4]; water additive EtOH): > 512 µg/mL
